Reference: the kinase profiling compilation of Christmann-Franck et al. (2016)

Columns and labels:
Assay in all cases: KINOMEscan competition binding
Details in all cases: compound 10.0 µM
AKT3 (human) = AKT3 (human) (UniProt Q9Y243)
DAPK2 (human) = DAPK2 (human) (UniProt Q9UIK4)
DDR1 (human) = DDR1 (human) (UniProt Q08345)
[1] = system: EGFR (human), P00533 [T790M]
EIF2AK1 (human) = EIF2AK1 (human) (UniProt Q9BQI3)
EPHA1 (human) = EPHA1 (human) (UniProt P21709)
EPHB2 (human) = EPHB2 (human) (UniProt P29323)
EPHB2 (human), sequence (P29323 whole entry, looked up): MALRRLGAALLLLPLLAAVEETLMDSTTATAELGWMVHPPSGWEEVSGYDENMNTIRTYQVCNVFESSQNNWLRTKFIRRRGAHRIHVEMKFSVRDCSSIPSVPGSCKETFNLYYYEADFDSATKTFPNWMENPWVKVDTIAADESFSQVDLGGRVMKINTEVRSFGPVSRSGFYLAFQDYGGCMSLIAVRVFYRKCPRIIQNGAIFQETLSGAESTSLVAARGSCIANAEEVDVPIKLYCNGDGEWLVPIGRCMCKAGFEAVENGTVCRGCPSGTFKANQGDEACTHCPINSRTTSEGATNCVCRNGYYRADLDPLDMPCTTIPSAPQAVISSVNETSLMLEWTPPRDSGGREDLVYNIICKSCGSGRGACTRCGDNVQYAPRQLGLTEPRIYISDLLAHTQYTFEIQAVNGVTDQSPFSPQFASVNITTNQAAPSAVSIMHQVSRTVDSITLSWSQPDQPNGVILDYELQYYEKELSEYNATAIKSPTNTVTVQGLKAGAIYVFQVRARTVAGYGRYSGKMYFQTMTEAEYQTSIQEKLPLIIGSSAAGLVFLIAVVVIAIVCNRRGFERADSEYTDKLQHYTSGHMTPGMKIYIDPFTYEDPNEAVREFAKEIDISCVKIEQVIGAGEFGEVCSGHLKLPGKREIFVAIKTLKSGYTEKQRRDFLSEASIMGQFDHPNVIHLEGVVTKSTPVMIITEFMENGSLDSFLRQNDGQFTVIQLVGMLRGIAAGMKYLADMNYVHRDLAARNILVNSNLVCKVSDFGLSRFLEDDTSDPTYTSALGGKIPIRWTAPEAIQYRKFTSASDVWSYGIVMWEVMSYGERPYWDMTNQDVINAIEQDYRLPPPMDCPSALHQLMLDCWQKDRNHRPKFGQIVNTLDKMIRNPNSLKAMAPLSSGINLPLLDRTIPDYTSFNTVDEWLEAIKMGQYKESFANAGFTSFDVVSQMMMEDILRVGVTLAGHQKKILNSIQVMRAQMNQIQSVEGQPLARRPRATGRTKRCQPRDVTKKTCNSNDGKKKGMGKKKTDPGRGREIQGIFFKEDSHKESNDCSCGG

EPHB4 (human) = EPHB4 (human) (UniProt P54760)
FRK (human) = FRK (human) (UniProt P42685)
HCK (human) = HCK (human) (UniProt P08631)
HIPK4 (human) = HIPK4 (human) (UniProt Q8NE63)
HIPK4 (human), sequence (Q8NE63 whole entry, looked up): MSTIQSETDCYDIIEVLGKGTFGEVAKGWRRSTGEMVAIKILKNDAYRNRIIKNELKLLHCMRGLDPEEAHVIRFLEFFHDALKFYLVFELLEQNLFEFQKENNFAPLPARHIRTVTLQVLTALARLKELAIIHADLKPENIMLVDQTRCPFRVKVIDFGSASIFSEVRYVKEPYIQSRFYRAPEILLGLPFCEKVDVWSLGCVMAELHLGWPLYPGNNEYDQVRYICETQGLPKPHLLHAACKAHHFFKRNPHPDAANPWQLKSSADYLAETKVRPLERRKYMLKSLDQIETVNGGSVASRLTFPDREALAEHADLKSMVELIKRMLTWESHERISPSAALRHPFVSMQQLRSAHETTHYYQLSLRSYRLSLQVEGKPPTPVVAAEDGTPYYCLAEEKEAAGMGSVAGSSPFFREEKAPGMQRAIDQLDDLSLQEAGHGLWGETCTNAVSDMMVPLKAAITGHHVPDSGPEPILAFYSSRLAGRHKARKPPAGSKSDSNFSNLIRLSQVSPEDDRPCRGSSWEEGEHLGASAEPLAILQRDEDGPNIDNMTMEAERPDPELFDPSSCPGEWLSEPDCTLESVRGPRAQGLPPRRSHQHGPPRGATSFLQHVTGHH

LIMK2 (human) = LIMK2 (human) (UniProt P53671)
MAP3K6 (human) = MAP3K6 (human) (UniProt O95382)
MAPK1 (human) = MAPK1 (human) (UniProt P28482)
MAPKAPK5 (human) = MAPKAPK5 (human) (UniProt Q8IW41)
MYLK (human) = MYLK (human) (UniProt Q15746)
MYLK2 (human) = MYLK2 (human) (UniProt Q9H1R3)
MYLK4 (human) = MYLK4 (human) (UniProt Q86YV6)
NIM1 (human) = NIM1 (human) (UniProt Q8IY84)
PHKG2 (human) = PHKG2 (human) (UniProt P15735)
PHKG2 (human), sequence (P15735 whole entry, looked up): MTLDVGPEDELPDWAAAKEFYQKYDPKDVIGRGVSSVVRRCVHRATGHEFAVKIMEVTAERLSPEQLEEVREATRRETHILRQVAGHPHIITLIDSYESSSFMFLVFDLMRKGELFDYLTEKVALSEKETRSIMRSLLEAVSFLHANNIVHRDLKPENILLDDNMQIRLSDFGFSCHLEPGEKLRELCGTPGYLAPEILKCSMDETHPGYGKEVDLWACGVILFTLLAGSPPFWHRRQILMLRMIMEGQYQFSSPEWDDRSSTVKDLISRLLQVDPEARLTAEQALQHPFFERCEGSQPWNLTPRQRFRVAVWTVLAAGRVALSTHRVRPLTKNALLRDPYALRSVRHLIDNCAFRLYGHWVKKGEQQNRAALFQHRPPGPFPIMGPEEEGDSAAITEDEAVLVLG

PIK3C2G (human) = PIK3C2G (human) (UniProt O75747)
PIK3C2G (human), sequence (O75747 whole entry, looked up): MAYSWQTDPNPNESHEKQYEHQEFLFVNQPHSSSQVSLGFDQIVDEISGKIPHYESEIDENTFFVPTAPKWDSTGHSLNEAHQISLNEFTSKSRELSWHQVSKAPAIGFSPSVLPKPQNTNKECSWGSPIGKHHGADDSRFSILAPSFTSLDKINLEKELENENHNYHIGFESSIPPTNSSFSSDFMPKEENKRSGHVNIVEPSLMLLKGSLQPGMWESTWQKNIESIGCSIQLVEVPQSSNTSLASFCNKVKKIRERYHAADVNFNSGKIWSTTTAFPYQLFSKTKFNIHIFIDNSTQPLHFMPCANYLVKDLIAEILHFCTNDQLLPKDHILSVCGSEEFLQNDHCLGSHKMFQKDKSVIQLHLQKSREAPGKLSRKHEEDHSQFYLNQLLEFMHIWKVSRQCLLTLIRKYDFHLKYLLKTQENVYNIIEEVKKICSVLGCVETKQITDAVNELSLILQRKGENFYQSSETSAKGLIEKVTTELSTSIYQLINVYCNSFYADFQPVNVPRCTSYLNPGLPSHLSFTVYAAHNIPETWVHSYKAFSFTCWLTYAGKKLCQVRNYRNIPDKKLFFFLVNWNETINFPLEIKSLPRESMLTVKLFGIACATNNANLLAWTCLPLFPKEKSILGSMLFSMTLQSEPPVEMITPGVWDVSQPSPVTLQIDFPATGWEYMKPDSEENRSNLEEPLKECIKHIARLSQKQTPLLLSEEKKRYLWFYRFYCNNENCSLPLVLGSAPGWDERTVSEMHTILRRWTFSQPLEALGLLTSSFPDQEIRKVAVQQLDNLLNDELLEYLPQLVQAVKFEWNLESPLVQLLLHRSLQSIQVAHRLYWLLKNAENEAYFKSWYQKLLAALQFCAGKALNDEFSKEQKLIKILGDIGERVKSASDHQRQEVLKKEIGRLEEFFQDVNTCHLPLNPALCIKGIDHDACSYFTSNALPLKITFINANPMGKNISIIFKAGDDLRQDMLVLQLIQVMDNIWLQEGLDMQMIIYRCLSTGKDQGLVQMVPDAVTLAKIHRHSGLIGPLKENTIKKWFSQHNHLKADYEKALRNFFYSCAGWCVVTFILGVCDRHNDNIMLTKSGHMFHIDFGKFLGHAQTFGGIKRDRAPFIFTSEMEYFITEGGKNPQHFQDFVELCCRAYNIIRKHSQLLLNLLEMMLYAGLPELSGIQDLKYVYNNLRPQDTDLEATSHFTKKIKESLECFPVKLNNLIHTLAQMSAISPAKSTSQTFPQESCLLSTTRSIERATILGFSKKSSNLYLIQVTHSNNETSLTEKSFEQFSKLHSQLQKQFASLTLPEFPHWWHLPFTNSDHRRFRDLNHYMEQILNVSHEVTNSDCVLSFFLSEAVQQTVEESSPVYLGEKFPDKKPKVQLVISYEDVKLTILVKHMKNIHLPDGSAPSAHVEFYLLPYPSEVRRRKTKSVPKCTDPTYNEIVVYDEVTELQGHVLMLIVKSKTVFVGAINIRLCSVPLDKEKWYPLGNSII

PIK3CD (human) = PIK3CD (human) (UniProt O00329)
PKMYT1 (human) = PKMYT1 (human) (UniProt Q99640)
PRKD3 (human) = PRKD3 (human) (UniProt O94806)
PRKG1 (human) = PRKG1 (human) (UniProt Q13976)
[2] = system: RET (human), P07949 [M918T]
RPS6KA4 KD2 (human) = RPS6KA4 KD2 (human) (UniProt O75676)
RPS6KA6 KD1 (human) = RPS6KA6 KD1 (human) (UniProt Q9UK32)
SIK3 (human) = SIK3 (human) (UniProt Q9Y2K2)
SRPK1 (human) = SRPK1 (human) (UniProt Q96SB4)
STK38 (human) = STK38 (human) (UniProt Q15208)
STK38L (human) = STK38L (human) (UniProt Q9Y2H1)
ULK2 (human) = ULK2 (human) (UniProt Q8IYT8)

AKT3 (human), sequence (Q9Y243 whole entry, looked up): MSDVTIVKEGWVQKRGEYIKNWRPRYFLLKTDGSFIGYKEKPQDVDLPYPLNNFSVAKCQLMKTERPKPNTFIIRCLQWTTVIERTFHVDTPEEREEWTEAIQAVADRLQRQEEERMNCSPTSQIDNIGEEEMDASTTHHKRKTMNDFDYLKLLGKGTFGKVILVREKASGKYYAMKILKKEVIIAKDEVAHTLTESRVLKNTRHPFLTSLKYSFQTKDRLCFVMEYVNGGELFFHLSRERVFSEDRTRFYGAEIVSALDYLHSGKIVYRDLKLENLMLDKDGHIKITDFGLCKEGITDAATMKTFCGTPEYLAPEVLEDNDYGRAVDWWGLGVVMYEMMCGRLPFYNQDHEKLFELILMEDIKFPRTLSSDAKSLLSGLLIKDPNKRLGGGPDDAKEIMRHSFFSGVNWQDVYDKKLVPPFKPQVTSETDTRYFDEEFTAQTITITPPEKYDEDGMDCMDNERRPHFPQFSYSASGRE
EPHA1 (human), sequence (P21709 whole entry, looked up): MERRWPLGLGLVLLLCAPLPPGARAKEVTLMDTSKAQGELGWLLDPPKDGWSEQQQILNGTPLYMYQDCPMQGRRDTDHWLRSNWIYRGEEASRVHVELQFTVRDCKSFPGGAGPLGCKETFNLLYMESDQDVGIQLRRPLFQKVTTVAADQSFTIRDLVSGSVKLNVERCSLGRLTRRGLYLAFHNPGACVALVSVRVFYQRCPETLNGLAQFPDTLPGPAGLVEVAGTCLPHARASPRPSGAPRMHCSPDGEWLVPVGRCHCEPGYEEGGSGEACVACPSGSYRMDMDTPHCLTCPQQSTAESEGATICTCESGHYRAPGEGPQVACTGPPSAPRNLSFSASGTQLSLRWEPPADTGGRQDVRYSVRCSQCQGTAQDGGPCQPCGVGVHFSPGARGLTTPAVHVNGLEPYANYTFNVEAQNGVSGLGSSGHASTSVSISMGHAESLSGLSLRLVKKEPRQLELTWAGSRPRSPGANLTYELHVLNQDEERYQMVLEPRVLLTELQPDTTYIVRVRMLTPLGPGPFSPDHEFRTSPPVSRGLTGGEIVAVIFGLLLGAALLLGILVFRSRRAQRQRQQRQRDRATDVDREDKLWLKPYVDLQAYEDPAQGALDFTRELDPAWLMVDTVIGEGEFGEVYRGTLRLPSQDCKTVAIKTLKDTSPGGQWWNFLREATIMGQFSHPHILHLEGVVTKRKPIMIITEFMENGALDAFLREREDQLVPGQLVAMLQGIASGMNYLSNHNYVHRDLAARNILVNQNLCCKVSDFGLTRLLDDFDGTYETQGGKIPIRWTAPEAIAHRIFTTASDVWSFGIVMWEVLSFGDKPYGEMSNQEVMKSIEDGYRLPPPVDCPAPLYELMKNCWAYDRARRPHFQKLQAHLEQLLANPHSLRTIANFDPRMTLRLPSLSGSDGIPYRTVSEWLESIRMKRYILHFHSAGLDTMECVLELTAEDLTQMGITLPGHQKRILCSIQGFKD

Structure (SMILES)	kinase still bound, per cent of control (AKT3 (human)) [%]	kinase still bound, per cent of control (DAPK2 (human)) [%]	kinase still bound, per cent of control (DDR1 (human)) [%]	kinase still bound, per cent of control (EPHA1 (human)) [%]	kinase still bound, per cent of control (EPHB2 (human)) [%]	kinase still bound, per cent of control (LIMK2 (human)) [%]	kinase still bound, per cent of control (MAP3K6 (human)) [%]	kinase still bound, per cent of control (MAPK1 (human)) [%]	kinase still bound, per cent of control (MAPKAPK5 (human)) [%]	kinase still bound, per cent of control (MYLK (human)) [%]	kinase still bound, per cent of control (MYLK2 (human)) [%]	kinase still bound, per cent of control (MYLK4 (human)) [%]	kinase still bound, per cent of control (NIM1 (human)) [%]	kinase still bound, per cent of control (PHKG2 (human)) [%]	kinase still bound, per cent of control (PIK3C2G (human)) [%]	kinase still bound, per cent of control (PKMYT1 (human)) [%]	kinase still bound, per cent of control (PRKD3 (human)) [%]	kinase still bound, per cent of control (PRKG1 (human)) [%]	kinase still bound, per cent of control (RPS6KA4 KD2 (human)) [%]	kinase still bound, per cent of control (SRPK1 (human)) [%]	further results
C=CC(=O)Nc1cc(-n2c(=O)ccc3cnc4ccc(-c5cn[nH]c5)cc4c32)ccc1C	100	57	67	94	100	100	75	100	78	70	89	88	89	79	5.9	81	98	91	94	39	kinase still bound, per cent of control [1]: 1.4%; kinase still bound, per cent of control (EIF2AK1 (human)): 100%; kinase still bound, per cent of control (EPHB4 (human)): 100%; kinase still bound, per cent of control (FRK (human)): 99%; kinase still bound, per cent of control (HCK (human)): 100%; kinase still bound, per cent of control (HIPK4 (human)): 51%; kinase still bound, per cent of control (PIK3CD (human)): 27%; kinase still bound, per cent of control [2]: 51%; kinase still bound, per cent of control (RPS6KA6 KD1 (human)): 74%; kinase still bound, per cent of control (SIK3 (human)): 78%; kinase still bound, per cent of control (STK38 (human)): 87%; kinase still bound, per cent of control (STK38L (human)): 100%; kinase still bound, per cent of control (ULK2 (human)): 81%
C[C@@H](Oc1cc(-c2cnn(C3CCNCC3)c2)cnc1N)c1c(Cl)ccc(F)c1Cl	100	97	0.4	0.85	24	4.6	87	100	68	82	73	86	12	32	22	100	3	100	50	26	kinase still bound, per cent of control (EPHB4 (human)): 4.8%; kinase still bound, per cent of control (FRK (human)): 15%; kinase still bound, per cent of control (HIPK4 (human)): 15%; kinase still bound, per cent of control (PIK3CD (human)): 100%; kinase still bound, per cent of control (RPS6KA6 KD1 (human)): 46%; kinase still bound, per cent of control (STK38 (human)): 68%; kinase still bound, per cent of control (STK38L (human)): 95%; kinase still bound, per cent of control (ULK2 (human)): 4.7%
COCC(=O)NC/C=C/c1ccc2ncnc(Nc3ccc(Oc4ccc(C)nc4)c(C)c3)c2c1	100	89	52	88	100	100	100	100	100	87	100	100	87	86	24	100	83	100	100	100	kinase still bound, per cent of control (EIF2AK1 (human)): 100%; kinase still bound, per cent of control (EPHB4 (human)): 95%; kinase still bound, per cent of control (FRK (human)): 100%; kinase still bound, per cent of control (HIPK4 (human)): 95%; kinase still bound, per cent of control (PIK3CD (human)): 100%; kinase still bound, per cent of control [2]: 77%; kinase still bound, per cent of control (RPS6KA6 KD1 (human)): 96%; kinase still bound, per cent of control (SIK3 (human)): 76%; kinase still bound, per cent of control (STK38 (human)): 73%; kinase still bound, per cent of control (STK38L (human)): 100%; kinase still bound, per cent of control (ULK2 (human)): 100%
CNC(=O)c1cc(Oc2ccc(NC(=O)Nc3ccc(Cl)c(C(F)(F)F)c3)cc2)ccn1	100	87	0	20	17	57	100	100	100	83	43	100	97	100	80	94	67	95	89	80	kinase still bound, per cent of control (EIF2AK1 (human)): 57%; kinase still bound, per cent of control (HCK (human)): 27%; kinase still bound, per cent of control [2]: 0.1%; kinase still bound, per cent of control (SIK3 (human)): 100%; kinase still bound, per cent of control (STK38 (human)): 85%; kinase still bound, per cent of control (STK38L (human)): 100%; kinase still bound, per cent of control (ULK2 (human)): 89%
